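1) Cells in 96-well plates. 2) Compound, 48 h, 5 concentrations. 3) Linear interpolation between surrounding doses. 4) Unreached endpoint = highest concentration. GI50 = concentration required for 50% inhibition of growth. TGI: concentration producing complete growth inhibition.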 Where only a bound is given, the exact number is not on record here.

Holding throughout (assay): NCI anticancer screen, dose series, 48 h
For experiment [1], the system named is RXF 393 renal.
Experiment [2] concerns HOP-62 NSCLC.
The subject of experiment [3] is IGROV1 ovarian.
Experiment [4] deals with SF-295 CNS.
In experiment [5] the test system is RPMI-8226 leukemia.
In experiment [6] the test system is SK-MEL-5 melanoma.
Experiment [7] has as its system NCI/ADR-RES ovarian.
Experiment [8] deals with OVCAR-8 ovarian.
Experiment [9] has as its system MDA-N.
Experiment [10] has as its system OVCAR-4 ovarian.
Experiment [11] deals with HCT-116 colon.

Regarding `COC1CC(CC2CCC(C)C(C(C)C(=O)O)O2)OC2(OC(C)(C3CCC(C)(C4OC(C5OC(O)(CO)C(C)CC5C)CC4C)O3)CC2C)C1C` (stereo not given), the TGI in experiment [1] was determined as 1.15 µM; in experiment [2], 19.6 µM; in experiment [3], 66.9 µM; in experiment [4], 11.6 µM; in [5], 8.39 µM; in [6], 1.83 µM. In addition, the TGI in experiment [7] was > 66.1 µM; in experiment [8], 41.3 µM; in experiment [9], 4.99 µM; in experiment [10], 53.1 µM; in [11], 15.6 µM. Besides, the GI50 in experiment [7] is 2.58 µM.

As for `CCCCCOC(=O)c1cc2cc(CCl)ccc2oc1=O`, the TGI was 14.6 µM in [1]; 32.9 µM in [2]; 27.8 µM in experiment [3]; 60.4 µM in experiment [4]; > 80.1 µM in experiment [5]; 13.4 µM in [6]. For the same compound, the TGI was 53.3 µM in experiment [7]; > 63 µM in experiment [8]; 20.9 µM in [9]; 18.6 µM in experiment [10]; 27.4 µM in experiment [11].

On to `O=C(O)C(O)C(O)C(O)C(=O)CO` (stereo not given), for which the TGI in experiment [1], in [2], in experiment [3], in experiment [4], in experiment [5] and in [6] was > 100 µM in each case. In addition, the TGI in [7], in [8], in [9], in experiment [10] and in [11] was > 100 µM each time.

Consider `Nc1ccc(-c2nc3cc(F)ccc3s2)cc1CO`, for which the TGI is 34.9 µM in experiment [1]; 52.1 µM in experiment [2]; 63.4 µM in [3]; 34.8 µM in experiment [4]; > 100 µM in experiment [5]; > 100 µM in experiment [6]. Besides, the TGI in experiment [7], in experiment [8], in experiment [9], in experiment [10] and in experiment [11] was > 100 µM throughout.

As to `Cc1nc2ncn3c(c-2c1Cc1ccccc1)NC=C(O)N3`, the TGI is 64 µM in experiment [1]; > 100 µM in experiment [2]; 65.7 µM in experiment [3]; > 100 µM in experiment [4]; > 100 µM in experiment [5]; > 100 µM in [6]. The TGI in experiment [7], in [8], in [9], in experiment [10] and in experiment [11] was > 100 µM in each case.

Regarding `Nc1cc(-c2ccc(Cl)cc2)nn1-c1nc2ccccc2nc1-c1ccccc1`, the TGI in experiment [1], in experiment [2], in [3], in experiment [4], in [5] and in experiment [6] was > 100 µM in each case. Also, the TGI in experiment [7], in experiment [8], in [9], in experiment [10] and in experiment [11] was > 100 µM each time.

Turning to `COc1cc([C@@H]2c3cc4c(cc3[C@@H](c3c(O)cc(O)c5c3O[C@H](c3ccc(O)c(O)c3)[C@H](OC(=O)c3cc(O)c(O)c(O)c3)C5)[C@H]3COC(=O)[C@H]23)OCO4)cc(OC)c1OC`, the TGI is > 100 µM in experiment [1]; > 100 µM in experiment [2]; > 100 µM in experiment [3]; > 41.8 µM in experiment [4]; > 100 µM in experiment [5]; > 100 µM in experiment [6]. Further, the TGI in [7], in experiment [8], in [9], in experiment [10] and in [11] was > 100 µM each time.

`CC(=O)c1ccc2c(c1)N(CCCN1CCN(CCO)CC1)c1ccccc1C2`: the TGI was determined as 32.6 µM in experiment [1]; 30.3 µM in experiment [2]; 31.3 µM in experiment [3]; 31.8 µM in experiment [4]; 30.1 µM in [5]; 25.6 µM in experiment [6]. Also, the TGI in experiment [7] came out at 27.7 µM; in experiment [8], 30.7 µM; in [9], 26.7 µM; in [10] it was 30.2 µM; in experiment [11], 30.5 µM.

Consider `NC(=S)N1N=C(c2ccccc2O)CC1c1ccccc1` (stereo not given), for which the TGI is 41.6 µM in experiment [1]; 25.5 µM in [2]; 48.6 µM in [3]; 29.2 µM in [4]; 39.3 µM in experiment [5]; 23.1 µM in [6]. Also, the TGI in experiment [7] was 50.6 µM; in experiment [8], > 100 µM; in experiment [9], 10.5 µM; in [10], 67.1 µM; in experiment [11], 28.1 µM.
